Measured values published in the METLIN SMRT retention time set (Domingo-Almenara et al. 2019).

Assay: gradient 5% acetonitrile 3 min, to 50% in 2 min, to 85% in 15 min, held 3 min, 100 µL/min
Conditions: column: Zorbax Extend-C18 2.1 x 50 mm; eluents: water / acetonitrile, 0.1% formic acid
In short: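 The system's dead and dwell volumes were 40 μL and 900 μL, with a Zorbax Extend-C18 column (2.1 × 50 mm, 1.8 μm) run at 100 μL/min in water and acetonitrile containing 0.1% formic acid each. Pure standards were analyzed in mixtures of ~100 molecules by HPLC–quadrupole time-of-flight mass spectrometry in positive and negative ionization mode. Retention time was assigned from computationally picked, manually inspected adduct peaks.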

SMILES	RP-LC retention time [s]
CN1CCN(C2CCN(C(=O)Nc3cc(Oc4ccc(NC(=O)C5(C(=O)Nc6ccc(F)cc6)CC5)c(F)c4)ccn3)CC2)CC1	659
O=C(Nc1ccc(N2CCOCC2)cc1)C1CCN(c2cncnc2N2CCCC2)CC1	602
O=c1ccn(-c2cccc(F)c2)nc1-c1nc(-c2ccc3c(c2)OCO3)no1	846
O=C(NCCc1ccccc1)C1CC(=O)N(CCc2c[nH]c3ccc(F)cc23)C1 (stereo not given)	867
CCN1C(=O)CN(C(=O)C2CCCCC2)CC12CCOCC2	654
Cc1cc(C)cc(N2C(=O)CN(C3CCCC3)[C@H]3CS(=O)(=O)C[C@H]32)c1	790
Cc1nc(-c2cn(C)c3ncccc23)sc1C(=O)Nc1ccc(F)cc1Cl	1050
CCOc1ccc(S(=O)(=O)N2CC(=O)N(C3CCCC3)C3(CCCCC3)C2)cc1	1230
Cc1ccnc(N2CCCC(C(=O)NC3CCCC3)C2)n1 (stereo not given)	674
COC(=O)CNC(=O)NC(C(=O)N1CCc2ccccc21)c1ccccc1 (stereo not given)	792
CN(C)c1nccnc1OC1CCN(C(=O)c2ccnn2C)C1 (stereo not given)	634
Cc1ccc(-c2coc(-c3cccc(NS(=O)(=O)c4cccc5nsnc45)c3)n2)cc1	1180
CC(=O)N(Cc1nn(C)c2c1CN(S(=O)(=O)c1ccccc1F)CC2)c1ccccc1	779
Cc1ccc(-c2cc3n(n2)CCCN(C(=O)c2ccsc2)C3)cc1	845
Cc1nnc2c(NC(=O)c3ccccn3)cccn12	659
CC1CN(C(=O)Cn2cc(SCC(=O)N3CCCCCC3)c3ccccc32)CC(C)O1 (stereo not given)	889
COC(=O)c1cc2c(cn1)[nH]c1ccccc12	704
Cc1nc(Nc2ccccn2)sc1C(=O)N1CCc2ccccc2C1	829
COC(=O)c1ccccc1Nc1c(-c2ccccc2)nc2cnccn12	962

SMILES	RP-LC retention time [s]
COC(=O)c1cc2c(=O)n(-c3cc(OC)c(OC)c(OC)c3)ccc2nc1C	751
Cc1ccc(Cl)cc1N1CCN(C(=O)CN2C(=O)CN(C)C(=O)c3ccccc32)CC1	867
CC(C)[C@H](C(=O)Nc1ccc(C(=O)NO)cc1)c1ccccc1	791
CCN1CCN(CC(=O)NCc2ccccc2)C(=O)C1=O	570
CC(=O)N1CCc2cc(N3CC(C(=O)Nc4cccc(OC(F)(F)F)c4)CC3=O)ccc21 (stereo not given)	806
CN1c2ccccc2C(=O)NC12CCN(C(=O)c1ccccc1)CC2	700
COC(=O)c1cccc(NC(=O)N2C[C@H]3C[C@@H](C2)c2cccc(=O)n2C3)c1	636
Cc1cccc(CNS(=O)(=O)c2cc3n(c2)CCCNC3=O)c1	677
O=c1ccc(S(=O)(=O)N2CCCCC2)cn1Cc1ccccc1	851
O=C(CCn1c(CO)nc2ccccc21)c1ccccc1	578
CN1C(=O)C2CCCCN2c2ccc(C(=O)NCCc3c[nH]c4ccc(Cl)cc34)cc21 (stereo not given)	921
Cc1cc(S(=O)(=O)NCCc2cn(C)c3ncccc23)ccc1F	745
CC1(O)C=CC(=O)C=C1	551
COC(=O)c1ncn2c1C(=O)N(Cc1ccc(F)cc1Cl)C(C)(C(=O)NCc1ccccc1)C2 (stereo not given)	771
COc1cccc(-c2cc3c(=O)n(Cc4nc(-c5ccc(F)c(Br)c5)no4)ccn3n2)c1	1090
COc1cc(Cl)ccc1C(=O)N1CCCN(C2CCN(CC3CC3)C2=O)CC1 (stereo not given)	574
CCc1cccc(N2C=NS(=O)(=O)c3cccnc32)c1	836
Cc1ccccc1Nc1c(-c2ccc(O)cc2)nc2c(C)cccn12	651
O=C(Cn1nc2c(N3CCSCC3)nccn2c1=O)NCCC1=CCCCC1	861

SMILES	RP-LC retention time [s]
O=C(NCCCN1CCCCCC1)C1CCCN(c2nc3cccnc3s2)C1 (stereo not given)	595
CCC(=O)NCc1nc2c(n1CC)CN(C(=O)c1ccccc1C(F)(F)F)CC2	594
O=C(Nc1nccs1)c1ccc(Cl)c(S(=O)(=O)N2CCOCC2)c1	729
Cc1ccc(NC(=O)NC(C)C(=O)N2CCc3ccccc32)c(Cl)c1 (stereo not given)	967
O=C(Nc1ccccc1)c1cnc(-c2ccc(F)cc2)nc1-c1ccncc1	892
Cn1cnc(S(=O)(=O)NCCc2noc(-c3ccncc3)n2)c1	596
CCC(CO)Nc1nc(NCc2ccccc2)c2ncn(C(C)C)c2n1 (stereo not given)	630
Nc1ccc(NC(=O)c2ccc(C(F)(F)F)cc2)nc1	693
Cc1cccc(NC(=O)c2csc(-c3cn(C)c4ncccc34)n2)c1C	1050
Cc1oc2ncn(CC(=O)N3CCC(C(N)=O)CC3)c(=O)c2c1C	613
O=C(Nc1nc2c(s1)COc1ccccc1-2)c1cc(Cl)ccc1Cl	1030
CCCCNC(=O)c1ccc2nc(CCc3ccc(NC(=O)CC)cc3)[nH]c2c1	570
C[C@@]1(O)CCN(Cc2cccc(F)c2F)C[C@H]1N1CCCC1	563
O=C(Nc1nccs1)c1ccc2c(c1)CCCC2	869
CN(C)C(=O)C1c2ccccc2CC(=O)N1Cc1ccccc1 (stereo not given)	728
Cn1cc(C2c3nccn3CCCN2S(=O)(=O)c2cccc(C(F)(F)F)c2)cn1 (stereo not given)	656
CCCC(=O)Nc1ccc2c(c1)CN(C(=O)c1ccc(F)c(Cl)c1)C(C(=O)N(C)C)C2 (stereo not given)	727
CS(=O)(=O)N1CCN(C(=O)c2ccc(-n3cccn3)nn2)CC1	601
Cc1nnsc1C(=O)N1CCc2nc(NC(=O)c3ccco3)sc2C1	636

Results, then the compound that gave them:

RP-LC retention time [s]	SMILES
775	O=C(Cn1nc(C(=O)N2CCCC2)c2ccccc21)NCCc1cccs1
553	O=C(NCCCN1CCOCC1)c1csc(-c2ccc(N3CCCC3)nc2)n1
1080	Cc1nc(-c2cc(S(=O)(=O)NCc3ccc(OC(C)C)cc3)c(C)s2)cs1
803	COc1ccc(OC)c(NC(=O)N2CCC(CC(=O)NCc3ccc(F)cc3)CC2)c1
660	COc1ccc(C2(CNC(=O)CCc3c(C)noc3C)CCOCC2)cc1
784	COc1ccc(-c2nc(NCc3ccc(C)o3)c3ccccc3n2)cc1
1250	Cc1ccc(-c2noc(-c3ccc4c(c3)OCCO4)n2)cc1
601	Cc1cccc(CC(=O)NCCCN2CCN(c3ccccc3)CC2)c1
975	COc1ccc(OC)c(CNC(=O)c2c(C)sc3ccn(CC(C)C)c(=O)c23)c1
746	Cc1onc(-c2ccccc2Cl)c1C(=O)NC1CC1
872	CCc1noc(NC(C)=O)c1-c1ccc(C)c(S(=O)(=O)Nc2cc(Cl)ccc2OC)c1
636	Cc1cc(N2CCOCC2)n2nc(CN3CCN(c4ccccc4C)CC3)nc2n1
1020	CCc1ccc(OCc2nc(CCN(C)C(=O)C3CCCC3)no2)cc1
946	COc1ccc(CCc2nc(-c3ccc4c(c3)nc(C)c(=O)n4C)no2)cc1
719	Cc1ccc(C)c2sc(N(C)CC(=O)NCCSc3nncn3C)nc12
876	CCc1ccc(S(=O)(=O)N2CCN(c3cc(C)nc(NC4CCCCC4)n3)CC2)cc1
955	COC(=O)c1c(NCCN2CCCc3ccccc32)c2cccc(Cl)c2[nH]c1=O

RP-LC retention time [s]	SMILES
1060	CCCn1c(=O)c(C)nc2cc(-c3noc(COc4ccc(F)cc4)n3)ccc21
771	Cc1ccnc(OCC(=O)Nc2ccc(OC(F)(F)F)cc2)n1
1030	Cc1cc(C(=O)Nc2ccc(N3CCOCC3)cc2)nc2cc(-c3ccsc3)nn12
601	CCc1ccc(Nc2c(C(=O)N3CCOCC3)cnc3nc(C)ccc23)cc1
599	Cc1cccc(CN2CCC(CNC(=O)C3CCCN(c4cc(=O)n(C)c(=O)n4C)C3)CC2)c1 (stereo not given)
763	Cc1ccc(C)c(NC(=O)CCc2nc(N3CCOCC3)c3c(C)noc3n2)c1
639	COc1ccc(N2CCN(C(=O)Cn3nc4nc(N5CCCC5)ccn4c3=O)CC2)cc1
928	COc1ccc(S(=O)(=O)CCC(=O)NC(C(=O)N2CCCc3ccccc32)c2ccccc2)cc1 (stereo not given)
1020	COc1ccc(C)cc1NC(=O)N(C)CCc1noc(COc2cccc(C)c2)n1
645	COc1ccc(Nc2nc(N3CCN(C)CC3)nc3c2C(=O)CCC3)cc1
1120	COc1ccc(-c2nnc(-c3ccc(C)c(S(=O)(=O)N4CCCCC4)c3)o2)cc1
591	O=C(CCc1ccc2nc[nH]c2c1)Nc1ccc2c(c1)OCCO2
683	CCOc1ccc(NC(=O)C2CCCN(c3nnc4ccc(Cl)cn34)C2)cc1 (stereo not given)
992	O=C(Nc1ccc(OC(F)(F)F)cc1)C1CCCN(c2cc(-n3cccn3)ncn2)C1 (stereo not given)
904	CC(C)c1ccc(OCC(=O)Nc2nnc(C3CC(=O)N(c4ccc(F)cc4)C3)o2)cc1 (stereo not given)
718	CCCNc1cc(N2CCC(CCC(=O)NCc3ccccc3Cl)CC2)ncn1
